System: Human umbilical vein endothelial cells (HUVECs)
Experiment: Comparison of LA-419 and ISDN: NO and ONOO− release from HUVECs measured with tandem electrochemical nanosensors (Example 1)
Type: cell-based
Settings: for NO release (mean ± S.D.) / ONOO− release (mean ± S.D.): 500 nM, 12 hours, then CaI (1.0 μM); for decrease in NO release / increase in levels of ONOO− / decrease in the NO/ONOO− ratio: pretreatment 12 h
Description: Human umbilical vein endothelial cells (HUVECs) were isolated into primary cultures and purchased as proliferating cells from Clonetics (San Diego, Calif.). All cell culture donors were healthy, with no pregnancy or prenatal complications. The cultured cells were incubated in 95% air/5% CO2 at 37° C. and passage by an enzymatic (trypsin) procedure. The confluent cells (4 to 5×10^5 cells per 35-mm dish) were placed with minimum essential medium containing 3 mM L-arginine and 0.1 mM BH4 [(6R)-5,6,7,8-tetrahydrobiopterin]. Before the experiments, the cells (from second or third passage) were rinsed twice with Tyrode-HEPES buffer with 1.8 mM CaCl2. ISDN was obtained from Sigma-Aldrich.
Concurrent measurements of NO and ONOO^− were carried out with tandem electrochemical nanosensors combined into one working unit with a total diameter of 200-500 nm (FIG. 1). Their design was based on previously developed and well-characterized chemically modified carbon-fiber technology (Malinski and Taha, 1992; Lvovich and Scheeline, 1997). Each of the nanosensors was made by depositing a sensing material on the tip of a carbon fiber (length 4-5 μm, diameter 0.2-0.5 μm). The fibers were sealed with nonconductive epoxy and electrically connected to copper wires with conductive silver epoxy. A conductive film of polymeric nickel (II) tetrakis(3-methoxy-4-hydroxyphenyl)porphyrin for the NO-sensor and polymeric film of Mn (III) [2.2]paracyclophanylporphyrin was used for the ONOO^−-sensor.
A module of NO/ONOO^− nanosensors (diameter 1-2 μm) with a platinum wire (0.1 mm) counter electrode and saturated calomel reference electrode (SCE) were applied. Differential pulse voltammetry (DPV) and amperometry were performed with a computer-based Gamry VFP600 multichannel potentiostat. DPV was used to measure the basal NO and ONOO^− concentrations, and amperometry was used to measure changes in NO and ONOO^− concentrations from its basal level with time. The DPV current at the peak potential characteristic for NO oxidation (0.65 V) and ONOO^− reduction (−0.45 V) was directly proportional to the local concentrations of these compounds in the immediate vicinity of the sensor. Linear calibration curves (current vs. concentration) were constructed for each sensor from 10 nM to 3 μM before and after measurements with aliquots of NO and ONOO^− standard solutions, respectively. The detection limit of the sensors was 1.0 nM.
The quantification of each analyte (concentration in nM) was performed using a maximum current from amperograms and standard calibration curves. A reproducibility of measurements with nanosensors is relatively high (between 5-12%). […] The sensors were slowly raised 5±2 μm from the surface of a single endothelial cell. The eNOS agonist, calcium ionophore A23187 (CaI) as well as the different drugs were then added to the surrounding media at the cell surface with a nanoinjector that was also positioned by a computer controlled-micromanipulator.
The HUVEC preparation is stable over the course of these experiments with the cells remaining viable in culture for >24 hours. Under non-stimulating conditions, basal levels of NO release are very low (<30 nM). Measurement of NO release as a function of treatment was conducted in individual endothelial cells. Multiple measurements of NO release can be conducted on single cells following a brief refractory period. For robust statistical analysis, separate cells were used for each concentration and type of drug used in these analyses.

[1] = HUVECs from Non-Hispanic Whites

O=[N+]([O-])O[C@H]1CO[C@H]2[C@@H]1OC[C@H]2O[N+](=O)[O-] [ISDN, isosorbide dinitrate]
NO release (mean ± S.D.) (HUVECs from African Americans): 218 ± 16 nM | ONOO− release (mean ± S.D.) (HUVECs from African Americans): 552 ± 11 nM | NO release (mean ± S.D.) [1]: 343 ± 11 nM | ONOO− release (mean ± S.D.) [1]: 323 ± 9 nM | decrease in NO release (HUVECs from African Americans): 12% | increase in levels of ONOO− (HUVECs from African Americans): 18% | decrease in the NO/ONOO− ratio (HUVECs from African Americans, p<0.05): 25% | decrease in NO release (HUVECs from non-Hispanic whites): 11% | decrease in the NO/ONOO− ratio (HUVECs from non-Hispanic whites, p<0.01): 23% | increase in levels of ONOO− (HUVECs from whites): 16%

— US20130131161A1, “METHODS AND COMPOSITIONS FOR CARDIOVASCULAR DISEASES AND CONDITIONS” (priority 2009, published 2013)
